# In patent publication US20070077607A1, “Novel screening method” (priority 2003, published 2007):
# Where no end group is shown, it is not given here.
# Tests used:
# [1] = system: HOB cells; test: Cell adhesion assay (cell attachment and cell spreading), HOB cells; type: cell-based, human
# Protocol: To evaluate cell attachment and cell spreading exponentially growing cells were detached from substratum by trypsinisation (0.25% (v/v) trypsin in 5 mM EDTA), collected into medium containing a ˜7% (V/V) final concentration of FCS, washed twice with medium without serum and then plated (2×10^4cells/well) onto FN-coated 96-well plates with and without further immobilisation of tTG. After a maximum of 20-minute incubation (to minimise the effect of any endogenous secreted proteins) at 37° C. in a 5% CO2 atmosphere, cells were fixed in 3.7% (w/v) paraformaldehyde in PBS pH 7.4, permeabilised in 0.1% (v/v) Triton X-100 and stained with May Grunwald and Giemsa stain (Jones et al 1997, Verderio et al. 2000). In some cases cells were pre-treated for 15 hours with 1 mM cycloheximide before plating to rule out any effects of endogenous secreted adhesion molecules. Digital images of three non-overlapping fields covering the central portion of each well was captured using a video digital camera (Olympus DP10) and examined using the Image Analysis programme Scion Image (National Institute of Health, USA). A total of at least nine images of separate fields per sample were examined for a total of at least 900 cells in the FN control. The number of cell particles in each field was measured by thresholding and particle analysis setting a minimum particle size of 50 pixels. Spread cells were analysed and quantified by “density slicing” and particle analysis.
# Adhesion of cells to FN was decreased by pre-incubation with RGD synthetic peptide (50 μg/ml, ˜75 ∝M, 100 μg/ml ˜150 μM, or 200 μg/ml ˜300 μM) or function blocking anti-integrin antibodies 40 μg/ml anti-β1 integrin (JB1A), 30 μg/ml anti-α5 integrin (P1D6). Detached cells (as described above) were pre-incubated in suspension (2×10^5cells/ml) in serum-free medium containing either RGD peptide or anti-integrins antibodies at 37° C. for 10 minutes in 5% CO2 atmosphere, and then seeded in the presence of the peptides.
# [2] = system: Swiss 3T3 fibroblasts; test: Cell adhesion assay (cell attachment and cell spreading), Swiss 3T3 fibroblasts; type: cell-based, mouse; conditions: 100 μg/ml RGD peptide
# Protocol: To evaluate cell attachment and cell spreading exponentially growing cells were detached from substratum by trypsinisation (0.25% (v/v) trypsin in 5 mM EDTA), collected into medium containing a ˜7% (V/V) final concentration of FCS, washed twice with medium without serum and then plated (2×10^4cells/well) onto FN-coated 96-well plates with and without further immobilisation of tTG. After a maximum of 20-minute incubation (to minimise the effect of any endogenous secreted proteins) at 37° C. in a 5% CO2 atmosphere, cells were fixed in 3.7% (w/v) paraformaldehyde in PBS pH 7.4, permeabilised in 0.1% (v/v) Triton X-100 and stained with May Grunwald and Giemsa stain (Jones et al 1997, Verderio et al. 2000). In some cases cells were pre-treated for 15 hours with 1 mM cycloheximide before plating to rule out any effects of endogenous secreted adhesion molecules. Digital images of three non-overlapping fields covering the central portion of each well was captured using a video digital camera (Olympus DP10) and examined using the Image Analysis programme Scion Image (National Institute of Health, USA). […] The number of cell particles in each field was measured by thresholding and particle analysis setting a minimum particle size of 50 pixels. Spread cells were analysed and quantified by “density slicing” and particle analysis. […]
# [3] = system: HOB cells; type: cell-based, human; conditions: FN+RGD
# [4] = system: FAK; test: FAK tyrosine phosphorylation (western blot, phospho(Tyr397)-FAK); type: cell-based, human; conditions: HOB; RGD peptide (100 μg/ml)
# Protocol: A cell suspension of 2×10^5 cells/ml was seeded in 9.6 cm^2-wells (6×10^5 cells/well) pre-coated with FN, tTG-FN or heat-inactivated 3% BSA (w/v) in PBS pH 7.4. After 30-minute incubation at 37° C. in a 5% CO2 atmosphere, the supernatant medium was removed, and non-adhered cells collected by spinning at 270 g for 5 minutes and then lysed in reducing Laemmli sample buffer at 95° C. for 5 minutes. The layer of adhered cells was scraped and similarly lysed (200 μl/well). The lysates of adhered and non-adherent cells were pooled together, fractionated (¼ aliquot) on 8% SDS-PAGE and then western blotted. Blots were incubated with a polyclonal rabbit anti-human phospho(Tyr 397)-FAK (1/2000), for ˜15 hours at +4° C. followed by anti-rabbit IgG peroxidase-conjugate (1/2000) for 2 hours at 21° C. Bands were detected by chemi-luminescence (Amersham), following manufacturer instructions. For re-probing with a control antibody, blots were treated with stripping buffer [50 mM Tris.HCl pH 6.7, 100 mM βME, 2% SDS (w/v)] for 30 minutes at 50° C. and then incubated with a monoclonal anti-tubulin antibody (1/2000), followed by peroxidase-conjugate anti-mouse IgGs/(1/1000).
# [5] = system: tTG-null mouse dermal fibroblasts (MDF-TG−/−); test: Anoikis quantification by TUNEL (flow cytometry and in situ microscopy); type: cell-based; conditions: RGD peptide, ~15-hour, flow cytometry
# Protocol: (§1) For fluorochrome labelling of DNA strand breaks, 6×10^5 cells were seeded in duplicate in 9.6 cm^2-wells pre-coated with FN or tTG-FN in the presence or absence of RGD peptide. After 15-hour incubation at 37° C. in a 5% CO2 atmosphere, all cells (adhered and non-adhered) were collected, washed twice in PBS pH 7.4, resuspended at the final concentration of 1.2×10^7 cells/ml and fixed in suspension by addition of one volume of 4% (w/v) PFM in PBS, pH 7.4 for 1 hour at room temperature. […] The fluorescence intensity measured by flow cytometry using a Beckman Coulter EPICS XL. Cells were collected and data stored using the SYSTEM II software and analysed using the WinMDI2.8 software. DNA fragmentation was also detected by in situ analysis of nuclei following TUNEL using a confocal fluorescent microscope (Leica). […] For quantification, the Leica LCS software was used to acquire three random images per well for a total of 9 images per experimental sample using a fixed protocol (with constant PMT and section-depth setting). Data are expressed as mean number of apoptotic cells per well. […] Data are expressed as absorbance values at 492 nm after subtraction of values at […] given by the unmetabolised salt.
# [6] = system: tTG-null mouse dermal fibroblasts (MDF-TG−/−); test: Cell viability (XTT) assay; type: cell-based; conditions: RGD peptide ~15 hours
# Protocol: as §1
# [7] = system: BRIN-BD11 (clonal β-cells); test: Cell attachment and spreading of BRIN-BD11 cells; type: cell-based, rat; conditions: excess RGD peptide
# Protocol: A novel insulin-secreting cell line (BRIN-BD11), which was established after electrofusion of RINm5F cells with New England Deaconess Hospital rat pancreatic islet cells, was grown confluent in RPMI 1640 media, supplemented with 10% FCS, 200 u/ml Penicillin, 200 ug/ml Streptomycin and L-Glutamine at 2 mM. The wells of microtitre plates were coated with FN (5 μg/ml) overnight at 4° C. The assigned wells were washed once with 50 mM Tris-HCl, pH 7.4 and then incubated with 20 μg/ml tTG solution (dissolved in PBS containing 2 mM EDTA pH 7.4) for 1 hour at 37° C. Meanwhile, exponentially growing cells were trypsinised and collected into medium containing approximately 7% (v/v) foetal calf serum. After a five-minute centrifugation at 300×g the cell pellet was washed twice in serum free medium to remove the traces of serum proteins. […] The cell attachment and spreading were quantified using the Scion image analysis programme, which is developed at the National Institute of Health (Washington DC, USA). The number of cells per image was assessed through threshold and particle analysis settings with a minimum particle size of 50 pixels. […] These were quantified by density slicing and particle analysis settings. […]
substance,measurement,setting,value
"GRGDTP [RGD peptide, GRGDTP]",cell spreading on FN,[1]; 100 μg/ml RGD peptide,10-50 % of control value
same,cell attachment on FN,[1]; 50 and 100 μg/ml RGD peptides,30-50 % of control values on FN
same,inhibition of cell attachment on the 70 kd fragment,[1]; RGD peptide (100 μg/ml),~40%
same,inhibition of cell spreading on the 70 kd fragment,[1]; RGD peptide (100 μg/ml),~40%
same,cell attachment on FN,[2],30-40 % of controls
same,cell spreading on FN,[2],30-40 % of controls
same,actin stress fibre organisation on FN,[3],actin was not organised into stress fibres
same,tyrosine phosphorylation of FAK on FN,[4],~25 % of level in control cells on
same,apoptotic cells among total fibroblasts grown on FN,[5],~24%
same,decrease of cell viability on FN versus control RAD peptide,[6],around 20%
same,cell attachment and spreading on FN,[7],decreased
